Measured values taken from patent US9404140B1, “Patterned cardiomyocyte culture on microelectrode array” (The University of Central Florida Research Foundation, Inc., priority 2009, dated 2016).
“Also recorded” adds a separate entry of the source.

System: patterned neonatal rat cardiomyocytes
Test: Multielectrode extracellular recordings from patterned spontaneously beating cardiomyocytes on MEAs (drug effect)
Format: cell-based
Protocol: MEAs containing 60, 10 μm diameter electrodes (Multichannel Systems, Germany) were cleaned by soaking the arrays in a detergent solution for 2 hours followed by sonication for 10 minutes. The arrays were then oxygen plasma cleaned for 20 minutes. Surface modification was completed by incubation of the MEAs in a 3 mM PEG silane, 2-[Methoxypoly(ethyleneoxy)propyl]trimethoxysilane (MW=460-590, Gelest), solution in toluene, with 37% concentrated HCL added to achieve a final value of 0.08% (0.8 ml HCL/L), for 45 minutes at room temperature. The arrays were then rinsed once in toluene, twice in ethanol, twice in water and sonicated in water for 2 minutes to remove the non-covalently linked material. The arrays were air dried with nitrogen and stored in a dessicator overnight.
The MEAs were patterned by laser ablation photolithography using a deep UV (193 nm) excimer laser (Lambda Physik) at a pulse power of 230 mW and a frequency of 10 Hz for 45 seconds through a quartz photomask (Bandwidth foundry, Eveleigh, Australia). The arrays were sterilized using 70% isopropanol and then incubated with 5 μg/ml of fibronectin in a Phosphate buffered solution (Invitrogen) for 20 minutes at room temperature. The solution was removed and the surface was first rinsed with PBS, followed by the plating medium, and then dried before the cells were plated.
The neonatal rat cardiomyocyte culture was prepared using the cardiac isolation kit from Worthington[40]. All animal work was approved by the UCF IACUC and followed NIH guidelines. Briefly, two day-old rat pups were euthanized in a precharged CO2 chamber. Hearts were dissected and minced in ice cold Hanks balanced salt solution (HBSS). Cardiac myocytes were dissociated by incubation of the hearts in trypsin (100 μg/ml in HBSS) for 16 hours at 2-8° C. The hearts in the trypsin solution were briefly warmed with a trypsin inhibitor before adding collegenase (300 units/ml in L-15 medium) for 45 minutes in a water bath at 37° C. followed by mechanical trituration. The cell solution was filtered to remove any remaining tissue and centrifuged at 50 g for 5 minutes at 22° C. The cells were resuspended in high glucose Dulbecco's modified eagle medium (DMEM, Gibco/Invitrogen) supplemented with 10 ml Fetal Bovine Serum (Gibco/Invitrogen) and 1 ml penicillin streptomycin (Gibco/Invitrogen), preplated in Petri dishes and incubated at 37° C. and in 5% CO2 for 45 minutes. This was necessary to eliminate the fibroblasts. The supernatant from the Petri dishes was centrifuged at 50 g for 5 min at 22° C. The cells were then resuspended in the plating medium. The serum-free plating medium consisted of: 100 ml Ultraculture medium (Bio Whittaker Cambrex) supplemented with 10 ml B27, 1 ml L-glutamine (Gibco/Invitrogen), 1 ml Penicillin Streptomycin, 0.375 g dextrose (Fisher Scientific) in 800 μl water, 1 ml non-essential amino acids and 1 ml of Hepes buffer (Gibco/Invitrogen)[41]. Additional growth factors were also added to improve cell survival in the serum-free conditions. They included 0.1 μg/ml of L-thyroxine, 10 ng/ml of Epidermal growth factor (Sigma-aldrich) and 0.5 μg/ml of Hydrocortisone (BD biosciences). Cells were plated at a density of 1000 cells/mm^2 on the MEAs. The medium was changed 24 hours after plating. Subsequent changing of the medium was performed every third day.
The cardiac myocytes were cultured on patterned metal MEAs (Planar 10 μm electrodes, 200 μm separation, Multichannel-systems). A 60 channel amplifier (MEA1040, Multichannel-systems) was used to record electrical activity from the spontaneously beating cardiac cells. The same electrodes were also used for stimulation utilizing a stimulus generator (STG 1002, Multichannel systems). The cells were stimulated utilizing 500 mV, 1 ms wide bipolar pulses at 2 Hz. The recording medium was the same as the plating medium with the pH adjusted to 7.3 using HEPES buffer. […]

[1] = 2 μM Sparfloxacin in recording medium

Row | Compound | Conduction velocity (CV) (50 μM 1-Heptanol in recording medium, spontaneously beating cells, n=4 MEAs, before treatment 0.197±0.014 m/s) | Time for propagation of the excitation wave versus value before treatment (50 μM 1-Heptanol, FPs recorded at 15 minute intervals) | Effect on CV in the cardiac myocyte monolayers (in words) (1-Heptanol, 50 μM) | Synchronicity of the beating cells (1-Heptanol, 50 μM) | Conduction velocity (CV), propagation of excitation after the drug (1-Heptanol, between electrodes 84 and 52 of the pattern, before drug 0.197 m/sec, FIG. 5) | Beating pattern, synchrony and conduction (in words) [1] | Field potential (FP) length [1] | Time to significant change in the spontaneous beating frequency [1]
1 | CCCCCCCO [1-Heptanol] | 0.0066±0.0004 m/s | significantly increased | drastically decreased the CV in the cardiac myocyte monolayers without completely blocking the conduction | maintaining the synchronicity of the beating cells | 0.0066 m/sec |  |  | 
2 | C[C@@H]1CN(c2c(F)c(N)c3c(=O)c(C(=O)O)cn(C4CC4)c3c2F)C[C@H](C)N1 [Sparfloxacin] |  |  |  |  |  | burst like activity with higher intra-burst frequencies and no synchrony between electrodes; also recorded: non-synchronous contractions similar to fibrillation and burst-like beating activity; also recorded: caused fibrillations which initiated a complete conduction block | increased FP length | ≤ 25 min
